According to the supplement of paper PMC10307832:

How the values were obtained:
Test in all cases: relative viability (nuclei count vs DMSO), 5 days (fraction); higher = more cells survive
[1] = system: EMC-BAC-2; conditions: first compound 8 µM
In short: (§1)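 A single step with final 0.05% Triton X-100, 1% formaldehyde and 1 ug/ml Hoechst fixed the cells and stained nuclei 5 days after treatment. Lung cancer cell lines in 1536-well plates had been treated by pin tool the day after seeding with one drug alone or a fixed anchor-drug dose plus five library-drug doses (not always all listed) in √10 steps, and nuclei were counted on 4× images. Relative viability is the ratio of nuclei in treated wells to nuclei in vehicle wells, taken as the median of duplicate plates.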

[2] = system: CAL-12T
In short: as §1

[3] = system: NCI-H2347
In short: as §1

[4] = system: SW 900
In short: as §1

[5] = system: H3255
In short: as §1

[6] = system: NCI-H1755
In short: as §1

[7] = system: NCI-H460
In short: as §1

[8] = system: NCI-H1651
In short: as §1

[9] = system: ChaGo-K-1
In short: as §1

[10] = system: 201T
In short: as §1

[11] = system: NCI-H2342
In short: as §1

[12] = system: NCI-H1734
In short: as §1

C=C1C(=O)O[C@@H](CCCCCCCC)[C@@H]1C(=O)O [C-75] + O=C(c1cc(Cc2n[nH]c(=O)c3ccccc23)ccc1F)N1CCN(C(=O)C2CC2)CC1 [Olaparib] (partner 8 µM)
relative viability [1]: 0.389
relative viability ([2]; first compound 0.08 µM): 0.774
relative viability ([2]; first compound 0.253 µM): 0.796
relative viability ([2]; first compound 0.8 µM): 0.788
relative viability ([2]; first compound 2.53 µM): 0.766
relative viability ([2]; first compound 8 µM): 0.793
relative viability ([3]; first compound 0.08 µM): 0.552
relative viability ([3]; first compound 0.253 µM): 0.514
relative viability ([3]; first compound 0.8 µM): 0.532
relative viability ([3]; first compound 2.53 µM): 0.539
relative viability ([3]; first compound 8 µM): 0.614
relative viability ([4]; first compound 0.08 µM): 0.923
relative viability ([4]; first compound 0.253 µM): 0.945
relative viability ([4]; first compound 0.8 µM): 1.05
relative viability ([4]; first compound 2.53 µM): 0.803
relative viability ([4]; first compound 8 µM): 0.977
relative viability ([5]; first compound 0.08 µM): 0.629
relative viability ([5]; first compound 0.253 µM): 0.581
relative viability ([5]; first compound 0.8 µM): 0.583
relative viability ([5]; first compound 2.53 µM): 0.537
relative viability ([5]; first compound 8 µM): 0.573
relative viability ([6]; first compound 0.08 µM): 0.93
relative viability ([6]; first compound 0.253 µM): 0.872
relative viability ([6]; first compound 0.8 µM): 0.847
relative viability ([6]; first compound 2.53 µM): 0.797
relative viability ([6]; first compound 8 µM): 0.846
relative viability ([7]; first compound 0.08 µM): 0.413
relative viability ([7]; first compound 0.253 µM): 0.503
relative viability ([7]; first compound 0.8 µM): 0.366
relative viability ([7]; first compound 2.53 µM): 0.356
relative viability ([7]; first compound 8 µM): 0.377
relative viability ([8]; first compound 0.08 µM): 0.196
relative viability ([8]; first compound 0.253 µM): 0.206
relative viability ([8]; first compound 0.8 µM): 0.189
relative viability ([8]; first compound 2.53 µM): 0.173
relative viability ([8]; first compound 8 µM): 0.167
relative viability ([9]; first compound 0.08 µM): 0.401
relative viability ([9]; first compound 0.253 µM): 0.392
relative viability ([9]; first compound 0.8 µM): 0.411
relative viability ([9]; first compound 2.53 µM): 0.358
relative viability ([9]; first compound 8 µM): 0.401
relative viability ([10]; first compound 0.08 µM): 0.812
relative viability ([10]; first compound 0.253 µM): 0.897
relative viability ([10]; first compound 0.8 µM): 0.84
relative viability ([10]; first compound 2.53 µM): 0.605
relative viability ([10]; first compound 8 µM): 0.87
relative viability ([11]; first compound 0.08 µM): 0.503
relative viability ([11]; first compound 0.253 µM): 0.49
relative viability ([11]; first compound 0.8 µM): 0.374
relative viability ([11]; first compound 2.53 µM): 0.38
relative viability ([11]; first compound 8 µM): 0.454
relative viability ([12]; first compound 0.08 µM): 0.546
relative viability ([12]; first compound 0.253 µM): 0.569
relative viability ([12]; first compound 0.8 µM): 0.277
relative viability ([12]; first compound 2.53 µM): 0.506
relative viability ([12]; first compound 8 µM): 0.608
